The record followed here is patent US10874106B2, “Method of regulating plant growth” (ROTAM AGROCHEM INTERNATIONAL COMPANY LIMITED, priority 2012, dated 2020).

What all share (format): in vivo
In assay [1] the test system is rice plants. In words: Growth of young rice plants treated with clomazone versus untreated plants. The protocol: (§1) Sugarcane plants are treated by the application of a commercially available concentrate formulation of clomazone (Centium 360 CS®; a suspension concentrate of microencapsulated clomazone at a concentration of 360 g/l). The concentrate formulation is dispersed in water and diluted, in a manner conventional in the art, to give an aqueous spray composition. The spray composition is applied to the sugarcane plants in an amount to apply clomazone at a rate of 120 g/hectare.
Young rice plants are treated in an analogous manner to that described in Example 1.
The growth of the rice plants is monitored and compared with the growth of rice plants of the same age and grown under the same conditions, but without treatment with clomazone.

For assay [2], the system named is potato plants. In words: Growth of young potato plants treated with clomazone versus untreated plants. The protocol: as §1
Young potato plants are treated in an analogous manner to that described in Example 1.
The growth of the potato plants is monitored and compared with the growth of potato plants of the same age and grown under the same conditions, but without treatment with clomazone.

Assay [3] concerns sugarcane plants. Nature of the assay: Growth of sugarcane plants treated with clomazone versus untreated plants. The protocol:
as §1
The growth of the sugarcane plants is monitored and compared with the growth of sugarcane plants grown under the same conditions, but without treatment with clomazone.

Assay [4] has as its system soybean plants. Nature of the assay: Growth of young soybean plants treated with clomazone versus untreated plants. The protocol:
as §1
Young soybean plants are treated in an analogous manner to that described in Example 1.
The growth of the soybean plants is monitored and compared with the growth of soybean plants of the same age and grown under the same conditions, but without treatment with clomazone.

Assay [5] relates to oilseed rape plants. In words: Growth of young oilseed rape plants treated with clomazone versus untreated plants. The method, then:
as §1
Young oilseed rape plants are treated in an analogous manner to that described in Example 1.
The growth of the oilseed rape plants is monitored and compared with the growth of oilseed rape plants of the same age and grown under the same conditions, but without treatment with clomazone.

The mark [6] stands for this setting: treated analogously to Example 1.
Where [7] appears, read: treated analogously to Example 1, versus untreated plants.
Setting [8] is: clomazone 120 g/hectare spray, versus untreated plants.

Take `CC1(C)CON(Cc2ccccc2Cl)C1=O` [clomazone, 2-(2-chlorophenyl)methyl-4,4-dimethyl-3-isoxazolidinone]: the “growth of the treated plants in comparison to the untreated plants” value in assay [1] (setting [6]) is given as “significantly improved”; in assay [2] (setting [6]) it was “significantly improved”; in assay [3] (Centium 360 CS diluted in water, sprayed, clomazone 120 g/hectare) it was “significantly improved”; in assay [4] (setting [6]) it was “significantly improved”; in assay [5] (setting [6]), “significantly improved”. Further, the average height entry in assay [1] (setting [7]), in assay [2] (setting [7]), in assay [3] (setting [8]), in assay [4] (setting [7]) and in assay [5] (setting [7]) was “greater” each time. Moreover, the “average leaf blade area” value in assay [1] (setting [7]), in assay [2] (setting [7]), in assay [3] (setting [8]), in assay [4] (setting [7]) and in assay [5] (setting [7]) was “larger” throughout. Moreover, the shoot growth result in assay [1] (setting [7]), in assay [2] (setting [7]), in assay [3] (setting [8]), in assay [4] (setting [7]) and in assay [5] (setting [7]) was “increased” throughout.
